Laboratory results taken from patent publication US20250144250A1, “PH-SENSITIVE FLUOROPHORES” (The General Hospital Corporation, priority 2022, published 2025).

Test system: peritoneal dissemination of ID8 ovarian cancer
Test: Intraoperative NIR imaging in mouse model of peritoneal dissemination of ovarian cancer
Assay type: in vivo, mice
Details: for TBR (tumor to background ratio): against normal pancreas
Procedure: Intraoperative NIR imaging: Seven-week-old female C57BL/6 mice were purchased from the Jackson Laboratory (Bar Harbor, ME) and housed in an AAALAC-certified facility at Massachusetts General Hospital (MGH). All animal procedures were performed in accordance with the Public Health Service Policy on Humane Care of Laboratory Animals and approved by the MGH IACUC (protocol #2016N000136). To establish a murine model of peritoneal dissemination of ovarian cancer, mice were injected intraperitoneally with 5×10^6 cells in 100 μL saline. In this model, macroscopic metastatic intraperitoneal nodules appear reproducibly at approximately 90 d. To perform NIR fluorescence imaging, mice were fed chlorophyll-free mouse chow (VWR International) at least 5 d prior to imaging to minimize autofluorescence. For in vivo imaging of ovarian cancer, animals were anesthetized with 100 mg/kg ketamine and 10 mg/kg xylazine subcutaneously (Webster Veterinary, Fort Devens, MA). Following anesthesia, a midline incision was made to expose the abdominal cavity. To evaluate in vivo tumor targetability of the NIR fluorophores, mice were intraperitoneally injected with 20 nmol of ovarian cancer-targeted NIR fluorophores dissolved in 100 μL saline containing 5 wt/v % BSA. The abdominal cavity was opened with a midline incision, and NIR images were obtained over 4 h of the exposed abdominal cavity. For NIR fluorescence imaging, we used a custom-built real-time intraoperative NIR imaging system as described previously. In this study, a 760 nm excitation was used at a fluence rate of 4 mW/cm^2, with white light (400-650 nm; 40,000 lux). Color and NIR fluorescence images were acquired simultaneously with custom software at rates up to 15 Hz over a 10 cm diameter field-of-view (FOV). Pseudo-colored lime green was used for NIR fluorescence in the color-NIR merged images. The imaging system was positioned at a distance of 9 inches from the surgical field. For all real-time intraoperative imaging, a standardized imaging protocol was used during and after the operation. General FOV (5 cm in dia.) was used to include the pancreas, head, duodenum, liver, and kidneys of a mouse, while closeup FOV (3.3 cm in dia.) included the pancreas, head, and duodenum. Color and NIR fluorescence images were taken simultaneously. Real-time fluorescence signal in tumors (Tu) and tumor-to-background ratio (TBR) compared to neighboring tissue was obtained over the period of imaging, and the fluorescence intensity was plotted to evaluate in vivo molecular biodistribution and clearance. All images were obtained using the same exposure time. Mice were euthanized 4 h post-injection with CO2 inhalation, and tumor tissues and the major organs, including the heart, lung, liver, pancreas, spleen, kidney, duodenum, intestine, muscle, and adnexa, were removed for ex vivo imaging and histological examination. NIR signals from resected tissues were imaged using the FLARE imaging system. The TBR was calculated using the same formula, with IT representing the intensity of the tumor tissue and IB representing the signal intensity of the surrounding tissue over the imaging period.
Evaluation of in vivo efficacy of NIR fluorophores for fluorescence-guided surgery (FGS): Having confirmed the pH sensitivity and tumor cell uptake of PH08 in vitro, we next evaluated the in vivo performance of the pH sensing NIR fluorophores in a mouse model of ovarian cancer. […] In this model, approximately 12 week post-peritoneal injection of ID8 cells, numerous nodules were observed on the peritoneum. These small nodules (<1 mm) are extremely difficult to localize and visualize in the surgical field. Thus, this model was suitable to test the performance of this fluorophore. For imaging of ovarian cancer, 20 nmol of PH08 was administered intraperitoneally. The abdominal cavity was then imaged on the custom-built imaging system. […]

Compound | TBR (tumor to background ratio) | TBR in words (up to 4 h after administration, compared with PH08) | time to clear visualization of small tumors after injection (20 nmol intraperitoneally) [min] | TBR against surrounding normal tissues and other major organs (20 nmol intraperitoneally, within 10 min of injection) | retention / preservation of signals (post-topical application) | TBR (up to 4 h after injection) | fluorescence recovery / increase time (upon topical application) [min]
CCN1/C(=C/C=C2\CCCC(/C=C/C3=[N+](CC)c4ccccc4C3(C)C)=C2c2ccccc2)C(C)(C)c2ccccc21 [PH03, 1-Ethyl-2-((E)-2-((E)-6-(2-((E)-1-ethyl-3,3-dimethylindolin-2-ylidene)ethylidene)-3,4,5,6-tetrahydro-[1,1′-biphenyl]-2-yl)vinyl)-3,3-dimethyl-3H-indol-1-ium iodide] | ++ (++, 2-3) | smaller TBRs |  |  |  |  | 
CCN1/C(=C/C=C2\CCCC(/C=C/C3=[N+](CC)c4ccccc4C3(C)C)=C2N2CCNCC2)C(C)(C)c2ccccc21 [PH08] | +++ (+++, 3-5) |  | ≤ 10 | ~6 | at least 4 h | > 5.5 | < 10
